According to PMC10780910, “Opioid/Dopamine Receptor Binding Studies, NMR and Molecular Dynamics Simulation of LENART01 Chimera, an Opioid-Bombesin-like Peptide” (Molecules, 2024):

How the values were obtained:
[1] = tested on: opioid and dopamine receptors; assay: Functional [35S]GTPγS binding, spinal cord membrane; type: biochemical, rat (Wistar); conditions: for Emax ± S.E.M., ligand alone / Emax ± S.E.M., Ligand + Cyprodime / Emax / Emax ± S.E.M., Ligand + Risperidone: rat spinal cord membrane, 30 °C, 60 min; for Emax ± S.E.M., ligand alone: Tris-EGTA pH 7.4, 0.05 nM [35S]GTPγS; for Emax ± S.E.M., Ligand + Cyprodime: opioid system, + cyprodime (selective MOR antagonist); for Emax ± S.E.M., Ligand + Cyprodime / Emax / Emax ± S.E.M., Ligand + Risperidone: pH 7.4; for Emax ± S.E.M., Ligand + Cyprodime / Emax ± S.E.M., Ligand + Risperidone: *** p < 0.001 vs ligand alone; for Emax / Emax ± S.E.M., Ligand + Risperidone: dopaminergic system; for Emax: + SCH-39166 (selective D1R antagonist), ns vs ligand alone, read-out: Emax ± S.E.M., Ligand + SCH-39166; for Emax ± S.E.M., Ligand + Risperidone: + risperidone (selective D2R antagonist)
Experimental: (§1) Both male and female Wistar rats were used for membrane preparations (brains and spinal cords). Animals were housed at 22 ± 0.5 °C with a 12:12 h light–dark cycle. Food and water were available ad libitum. All animal manipulations were carried out according to the European Communities Council Directives ([…]) and the Hungarian Act for the Protection of Animals in Research (XXVIII.tv. 32.§).
(§2) The functional [^35S]GTPγS binding experiments were performed as previously described. In brief, the brain and spinal cord homogenates were incubated at 30 °C for 60 min in Tris-EGTA buffer (pH 7.4) containing [^35S]GTPγS (0.05 nM) and in the presence of varying concentrations of the ligand. Non-specific binding was determined in the presence of non-radiolabeled 10 μM GTPγS. The reaction was stopped by rapid filtration under vacuum (Brandel M24R Cell Harvester), and the samples were washed with cold Tris-HCl buffer. The radioactivity of the dried filters was determined by scintillation counting.

[2] = tested on: opioid and dopamine receptors; assay: Functional [35S]GTPγS binding, brain membrane; type: biochemical, rat (Wistar); conditions: for Emax ± S.E.M., ligand alone: Tris-EGTA pH 7.4, 0.05 nM [35S]GTPγS; for Emax ± S.E.M., Ligand + Cyprodime: opioid system, + cyprodime (selective MOR antagonist), *** p < 0.001 vs ligand alone (unpaired t-test); for Emax ± S.E.M., Ligand + Risperidone: + risperidone (selective D2R antagonist), *** p < 0.001 vs ligand alone
Experimental: as §1, §2

[3] = tested on: dopamine D2 receptor (D2R); conditions: cited from earlier work
From the text: (§3) Noteworthily, the N-terminal pharmacophore of LENART01 consists of dermorphin with an amino acid sequence of YdAFGYPS. At the same time, the C-terminus was constructed from ranatensin, which was additionally heavily modified, resulting in a sequence of GHFM.

[4] = tested on: dopaminergic receptors; conditions: ref Zhu et al. 10; cited from earlier work
[5] = tested on: MOR; assay: Competitive [3H]DAMGO binding (MOR); design: species or system rat (Wistar); conditions: receptor binding assay, rat brain and spinal cord homogenates
From the text: (§4) The chimeric peptide LENART01 was examined in [^3H]DAMGO, [^3H]SCH−23390 and [^3H]Spiperone homolog displacement in rat brains and spinal cord homogenates. The binding affinity of the hybrid and its intrinsic activity value were compared with dermorphin and ranatensin, its structural components.
(§5) Figure 3 Binding affinity of LENART01 at MOR (A,B), D1R (C,D) and D2R (E,F) receptors, respectively, using [^3H]DAMGO and [^3H]SCH−23390 and [^3H]Spiperone as radioligands. Results represent mean ± SEM of 3 independent experiments, each performed in duplicate.
as §1
(§6) Competitive analysis of the chimera activity was performed in the presence of naloxone (in case of MOR displacement studies) or SCH-23390 (for D1R) and spiperone (for D2R). […] The radioactivity of the dried filters was detected using an UltimaGold^TM MV aqueous scintillation cocktail with a Packard Tricarb 2300TR liquid scintillation counter. […]

[6] = tested on: E. coli strains; conditions: different E. coli strains; cited from earlier work
From the text: as §3

[7] = tested on: D2R; assay: Competitive [3H]Spiperone binding (D2R); design: species or system rat (Wistar); conditions: rat brain and spinal cord homogenates
From the text: as §4, §5, §1, §6

[8] = rat brain membrane, 30 °C, 60 min
[9] = rat brain membrane, 30 °C, 60 min, pH 7.4
[10] = rat brain membrane, dopaminergic system, 30 °C, 60 min, pH 7.4

## YdAFGYPS [dermorphin, reference compound]
[1]
  Emax ± S.E.M., ligand alone: 140.0 ± 1.8%
  Emax ± S.E.M., Ligand + Cyprodime: 100.4 ± 0.9 *** %
[2]; [8]
  Emax ± S.E.M., ligand alone: 140.5 ± 2.9%
[2]; [9]
  Emax ± S.E.M., Ligand + Cyprodime: 100.0 ± 1.1 *** %

## ranatensin [reference compound]
[1]
  Emax: 117.4 ± 1.1%
  Emax ± S.E.M., Ligand + Risperidone: 100.0 ± 0.7 *** %
  Emax ± S.E.M., ligand alone: 119.8 ± 1.3%
[3]
  interaction with D2R: known to interact with
[2]; rat brain membrane, dopaminergic system, + SCH-39166 (selective D1R antagonist), 30 °C, 60 min, pH 7.4, ns for chimera, *** p < 0.001 for ranatensin
  Emax ± S.E.M., Ligand + SCH-39166: 119.1 ± 0.8 *** %
[2]; [10]
  Emax ± S.E.M., Ligand + Risperidone: 101.5 ± 1.7 *** %
[2]; [8]
  Emax ± S.E.M., ligand alone: 124.1 ± 1.9%
[4]
  analgesia and naloxone antagonism: naloxone failed to antagonize the pain-relieving effect
[5]
  binding to MOR: did not bind to MOR

## YdAFGYPSGHFM [LENART01]
[1]
  Emax: 136 ± 1.7%
  Emax ± S.E.M., Ligand + Risperidone: 101.6 ± 1.2 *** %
  Emax ± S.E.M., ligand alone: 136.3 ± 2.2%
  Emax ± S.E.M., Ligand + Cyprodime: 100.8 ± 1.1 *** %
[1]; spinal cord membrane, [35S]GTPγS
  maximal stimulation vs dermorphin: less than that of dermorphin
[6]
  antimicrobial activity: antimicrobial activity against different E. coli strains
[7]; [3H]Spiperone (D2R) vs [3H]SCH-23390 (D1R), Tris-HCl pH 7.4, 3 independent experiments in duplicate
  selectivity to D2R compared to D1R: high selectivity to D2R compared to D1R
[7]; receptor binding assay in vitro, abstract statement
  binding to dopamine receptors: bound to mu-opioid and dopamine receptors
[2]; rat brain membrane, dopaminergic system, + SCH-39166 (selective D1R antagonist), 30 °C, 60 min, pH 7.4, ns for chimera, *** p < 0.001 for ranatensin, read-out: Emax ± S.E.M., Ligand + SCH-39166
  Emax: 140.8 ± 0.8%
[2]; [10]
  Emax ± S.E.M., Ligand + Risperidone: 101.1 ± 0.7 *** %
[2]; [8]
  Emax ± S.E.M., ligand alone: 140.6 ± 1.0%
[2]; [9]
  Emax ± S.E.M., Ligand + Cyprodime: 100.4 ± 1.4 *** %
[2]; rat brain membranes, [35S]GTPγS
  dose-dependent increases in functional binding vs dermorphin: equal to the increases in dermorphin
[2]; selective D1R antagonist SCH−39166, tissue not specified
  effect of SCH−39166 on efficacy: did not significantly reverse the efficacy
[2]; selective D2R antagonist risperidone, tissue not specified
  effect of risperidone on stimulation: brought down the stimulation of LENART01 to basal activity
[2]; selective MOR antagonist cyprodime, tissue not specified
  effect of cyprodime on efficacy: reversed the efficacy
[5]
  binding to MOR: bound to mu-opioid and dopamine receptors
